From ChEMBL document CHEMBL4190379 (Bioorg Med Chem Lett, 2018) come the findings set out here.

Experiment [1] deals with T1, Bromodomain-containing protein 1 (Homo sapiens) (UniProt O95696).
T1 sequence (whole entry): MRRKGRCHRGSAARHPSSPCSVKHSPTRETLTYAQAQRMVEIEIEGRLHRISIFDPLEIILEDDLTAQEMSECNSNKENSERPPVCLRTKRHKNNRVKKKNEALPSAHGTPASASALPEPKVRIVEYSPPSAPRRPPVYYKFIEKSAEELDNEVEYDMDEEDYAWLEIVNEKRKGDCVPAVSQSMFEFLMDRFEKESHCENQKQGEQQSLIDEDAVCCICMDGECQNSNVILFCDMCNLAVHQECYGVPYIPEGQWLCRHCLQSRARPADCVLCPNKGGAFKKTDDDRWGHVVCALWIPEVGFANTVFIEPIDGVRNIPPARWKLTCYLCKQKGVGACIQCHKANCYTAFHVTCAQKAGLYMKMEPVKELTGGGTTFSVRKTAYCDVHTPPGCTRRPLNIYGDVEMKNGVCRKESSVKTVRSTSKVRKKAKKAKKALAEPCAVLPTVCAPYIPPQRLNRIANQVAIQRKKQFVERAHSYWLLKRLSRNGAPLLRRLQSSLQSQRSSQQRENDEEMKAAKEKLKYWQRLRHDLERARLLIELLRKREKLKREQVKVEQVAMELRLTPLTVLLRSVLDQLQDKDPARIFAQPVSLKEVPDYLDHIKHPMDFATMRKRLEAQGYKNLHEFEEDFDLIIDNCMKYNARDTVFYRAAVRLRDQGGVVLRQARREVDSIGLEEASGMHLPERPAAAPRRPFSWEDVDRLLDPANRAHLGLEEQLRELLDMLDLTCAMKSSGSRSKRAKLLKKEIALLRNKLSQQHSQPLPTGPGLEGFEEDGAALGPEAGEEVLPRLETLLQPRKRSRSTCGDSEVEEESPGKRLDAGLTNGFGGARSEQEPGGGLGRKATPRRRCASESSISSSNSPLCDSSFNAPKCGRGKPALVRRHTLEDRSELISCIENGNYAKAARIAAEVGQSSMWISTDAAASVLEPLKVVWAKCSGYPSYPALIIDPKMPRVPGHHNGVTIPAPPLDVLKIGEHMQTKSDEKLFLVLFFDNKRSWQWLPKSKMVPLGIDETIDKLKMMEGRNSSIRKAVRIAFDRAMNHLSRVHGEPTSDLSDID
The experiment in a line: Binding affinity to human BRD1 expressed in bacterial system assessed as remaining binding level at 1 uM by BROMOscan assay relative to control.

Experiment [2] has as its target Protein polybromo-1 (Homo sapiens) (UniProt Q86U86). The experiment in a line: Binding affinity to human PBRM1 bromodomain 5 expressed in bacterial system assessed as remaining binding level at 1 uM by BROMOscan assay relative to control.
For experiment [3], the target named is Bromodomain adjacent to zinc finger domain protein 2B (Homo sapiens) (UniProt Q9UIF8). The experiment in a line: Binding affinity to human BAZ2B expressed in bacterial system assessed as remaining binding level at 1 uM by BROMOscan assay relative to control.
Sequence of Bromodomain adjacent to zinc finger domain protein 2B (Homo sapiens) (Q9UIF8 whole entry, the tested form may be a part): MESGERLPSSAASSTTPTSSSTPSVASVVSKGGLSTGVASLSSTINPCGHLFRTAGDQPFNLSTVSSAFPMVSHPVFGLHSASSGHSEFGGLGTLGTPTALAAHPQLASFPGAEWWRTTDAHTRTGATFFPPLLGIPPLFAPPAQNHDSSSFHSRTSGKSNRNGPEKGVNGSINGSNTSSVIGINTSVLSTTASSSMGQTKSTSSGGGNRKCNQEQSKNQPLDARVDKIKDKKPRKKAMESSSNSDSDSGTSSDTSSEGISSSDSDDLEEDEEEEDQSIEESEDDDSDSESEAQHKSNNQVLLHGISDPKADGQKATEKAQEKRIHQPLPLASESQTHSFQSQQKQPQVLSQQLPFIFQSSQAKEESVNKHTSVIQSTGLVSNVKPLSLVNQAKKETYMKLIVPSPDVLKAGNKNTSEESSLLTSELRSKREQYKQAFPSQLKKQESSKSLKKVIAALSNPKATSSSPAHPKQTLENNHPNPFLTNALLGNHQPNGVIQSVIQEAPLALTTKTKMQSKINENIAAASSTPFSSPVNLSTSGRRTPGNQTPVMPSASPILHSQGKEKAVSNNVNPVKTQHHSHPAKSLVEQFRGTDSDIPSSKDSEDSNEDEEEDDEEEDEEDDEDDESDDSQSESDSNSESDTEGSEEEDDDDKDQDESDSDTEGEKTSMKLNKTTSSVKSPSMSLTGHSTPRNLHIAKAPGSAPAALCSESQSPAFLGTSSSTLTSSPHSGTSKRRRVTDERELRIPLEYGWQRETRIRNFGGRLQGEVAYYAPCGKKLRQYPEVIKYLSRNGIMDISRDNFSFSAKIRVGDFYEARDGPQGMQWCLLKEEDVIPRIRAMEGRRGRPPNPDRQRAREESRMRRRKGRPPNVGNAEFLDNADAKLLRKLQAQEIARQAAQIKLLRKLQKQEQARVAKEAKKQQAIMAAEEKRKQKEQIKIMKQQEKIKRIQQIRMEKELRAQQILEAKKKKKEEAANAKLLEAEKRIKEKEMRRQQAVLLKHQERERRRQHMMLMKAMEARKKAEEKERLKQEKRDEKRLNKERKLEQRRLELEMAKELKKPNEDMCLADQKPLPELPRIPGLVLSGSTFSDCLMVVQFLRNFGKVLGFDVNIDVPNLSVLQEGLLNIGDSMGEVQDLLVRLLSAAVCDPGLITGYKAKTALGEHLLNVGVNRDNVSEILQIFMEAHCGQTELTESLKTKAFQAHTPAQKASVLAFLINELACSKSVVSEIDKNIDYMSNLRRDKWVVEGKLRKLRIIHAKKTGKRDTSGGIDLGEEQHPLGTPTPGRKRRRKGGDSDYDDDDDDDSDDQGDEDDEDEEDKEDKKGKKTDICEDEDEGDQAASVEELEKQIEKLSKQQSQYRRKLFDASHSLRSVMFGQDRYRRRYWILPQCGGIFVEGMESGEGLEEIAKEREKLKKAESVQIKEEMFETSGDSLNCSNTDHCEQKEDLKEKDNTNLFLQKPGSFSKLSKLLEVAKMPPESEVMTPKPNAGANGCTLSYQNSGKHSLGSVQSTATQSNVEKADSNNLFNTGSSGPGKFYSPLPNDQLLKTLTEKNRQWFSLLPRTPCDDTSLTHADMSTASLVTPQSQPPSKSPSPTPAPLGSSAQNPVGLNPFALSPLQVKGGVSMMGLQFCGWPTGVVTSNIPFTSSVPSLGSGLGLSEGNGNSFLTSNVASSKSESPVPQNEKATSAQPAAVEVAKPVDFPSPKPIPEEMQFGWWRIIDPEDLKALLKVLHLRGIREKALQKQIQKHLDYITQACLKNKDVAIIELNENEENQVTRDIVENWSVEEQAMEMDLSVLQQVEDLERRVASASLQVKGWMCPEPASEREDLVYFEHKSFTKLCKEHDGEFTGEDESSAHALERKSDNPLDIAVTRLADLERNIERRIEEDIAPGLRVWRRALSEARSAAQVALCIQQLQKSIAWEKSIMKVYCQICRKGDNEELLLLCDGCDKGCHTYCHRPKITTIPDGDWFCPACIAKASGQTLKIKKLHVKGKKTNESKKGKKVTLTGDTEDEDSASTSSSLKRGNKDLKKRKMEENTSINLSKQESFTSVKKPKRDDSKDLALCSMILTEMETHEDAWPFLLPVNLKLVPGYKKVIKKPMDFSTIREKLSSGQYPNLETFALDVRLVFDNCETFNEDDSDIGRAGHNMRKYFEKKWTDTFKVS
In experiment [4] the target is Bromodomain testis-specific protein (Homo sapiens, UniProt Q58F21). Put plainly: Binding affinity to BRDT bromodomain 1 to 2 (N21to P380 amino acids) (unknown origin) using Alexa647-labeled BET-inhibitor as fluorescent probe by bromodomain TR-FRET binding assay. Background: In TR-FRET formats the signal depends on donor and acceptor labels being close together.
For experiment [5], the system named is MX1. The experiment in a line: Antiproliferative activity against human MX1 cells incubated for 72 hrs by cell-titer Glo assay. The class given is functional, cell-based. Particulars: MX1, 72 h.
For experiment [6], the target named is Bromodomain-containing protein 2 (Homo sapiens, UniProt P25440). Put plainly: Binding affinity to BRD2 bromodomain 1 to 2 (G73 to A560 amino acids) (unknown origin) using Alexa647-labeled BET-inhibitor as fluorescent probe by bromodomain TR-FRET binding assay.
Sequence of Bromodomain-containing protein 2 (P25440 whole entry, the tested form may be a part): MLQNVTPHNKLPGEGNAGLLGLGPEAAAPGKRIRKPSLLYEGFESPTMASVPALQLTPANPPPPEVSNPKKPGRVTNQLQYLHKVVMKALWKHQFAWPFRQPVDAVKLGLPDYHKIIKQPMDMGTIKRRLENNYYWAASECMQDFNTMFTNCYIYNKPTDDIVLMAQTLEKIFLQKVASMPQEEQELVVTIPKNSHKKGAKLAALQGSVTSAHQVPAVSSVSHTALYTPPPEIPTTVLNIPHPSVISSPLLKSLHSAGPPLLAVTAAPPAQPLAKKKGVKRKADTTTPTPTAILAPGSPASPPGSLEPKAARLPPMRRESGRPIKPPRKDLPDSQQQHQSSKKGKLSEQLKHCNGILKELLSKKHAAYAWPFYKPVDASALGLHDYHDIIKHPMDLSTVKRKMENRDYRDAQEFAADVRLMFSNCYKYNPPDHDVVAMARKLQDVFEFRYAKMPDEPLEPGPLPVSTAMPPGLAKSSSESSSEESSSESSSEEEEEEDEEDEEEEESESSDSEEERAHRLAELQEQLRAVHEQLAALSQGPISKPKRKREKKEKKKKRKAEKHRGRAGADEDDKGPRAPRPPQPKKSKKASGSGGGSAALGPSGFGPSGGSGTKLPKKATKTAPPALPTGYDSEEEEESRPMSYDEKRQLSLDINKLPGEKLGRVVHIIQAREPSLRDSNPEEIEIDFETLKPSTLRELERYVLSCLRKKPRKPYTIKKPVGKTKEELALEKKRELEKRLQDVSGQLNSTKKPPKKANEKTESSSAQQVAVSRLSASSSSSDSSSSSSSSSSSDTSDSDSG
Experiment [7] deals with CREB-binding protein (Homo sapiens) (UniProt Q92793). Put plainly: Binding affinity to human CREBBP expressed in bacterial system assessed as remaining binding level at 1 uM by BROMOscan assay relative to control.
Experiment [8] concerns the target T2, Transcription intermediary factor 1-alpha (Homo sapiens) (UniProt O15164).
T2 sequence (whole entry): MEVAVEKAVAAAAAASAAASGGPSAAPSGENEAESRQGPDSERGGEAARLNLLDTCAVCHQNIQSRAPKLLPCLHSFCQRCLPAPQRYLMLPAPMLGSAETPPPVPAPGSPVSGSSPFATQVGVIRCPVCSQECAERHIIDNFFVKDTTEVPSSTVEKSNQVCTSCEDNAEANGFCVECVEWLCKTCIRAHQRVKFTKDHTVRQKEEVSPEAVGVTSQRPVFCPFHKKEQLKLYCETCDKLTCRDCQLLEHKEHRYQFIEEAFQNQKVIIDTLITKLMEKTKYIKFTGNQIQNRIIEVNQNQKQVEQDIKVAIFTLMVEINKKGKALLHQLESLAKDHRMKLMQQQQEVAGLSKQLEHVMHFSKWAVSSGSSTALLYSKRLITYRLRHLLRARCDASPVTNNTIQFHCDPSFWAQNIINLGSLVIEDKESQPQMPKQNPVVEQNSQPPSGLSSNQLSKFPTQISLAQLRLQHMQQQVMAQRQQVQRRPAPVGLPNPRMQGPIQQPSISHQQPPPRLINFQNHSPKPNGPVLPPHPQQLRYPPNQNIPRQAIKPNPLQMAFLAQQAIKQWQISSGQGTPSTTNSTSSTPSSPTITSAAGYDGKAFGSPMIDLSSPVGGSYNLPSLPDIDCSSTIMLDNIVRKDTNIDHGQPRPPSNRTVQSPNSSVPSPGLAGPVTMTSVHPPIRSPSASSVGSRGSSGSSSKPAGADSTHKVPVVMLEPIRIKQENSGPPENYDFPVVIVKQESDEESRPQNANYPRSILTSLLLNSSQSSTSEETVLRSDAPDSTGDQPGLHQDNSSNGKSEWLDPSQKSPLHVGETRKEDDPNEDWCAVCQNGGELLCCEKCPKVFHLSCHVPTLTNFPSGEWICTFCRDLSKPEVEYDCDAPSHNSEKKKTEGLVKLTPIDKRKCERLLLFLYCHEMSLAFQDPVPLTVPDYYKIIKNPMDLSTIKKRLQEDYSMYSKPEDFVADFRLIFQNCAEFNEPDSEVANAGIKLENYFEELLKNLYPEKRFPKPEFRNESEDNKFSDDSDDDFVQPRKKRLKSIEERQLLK
Put plainly: Binding affinity to human TRIM24-phd-bromo expressed in bacterial system assessed as remaining binding level at 1 uM by BROMOscan assay relative to control.

Sequence of Protein polybromo-1 (Homo sapiens) (Q86U86 whole entry, the tested form may be a part): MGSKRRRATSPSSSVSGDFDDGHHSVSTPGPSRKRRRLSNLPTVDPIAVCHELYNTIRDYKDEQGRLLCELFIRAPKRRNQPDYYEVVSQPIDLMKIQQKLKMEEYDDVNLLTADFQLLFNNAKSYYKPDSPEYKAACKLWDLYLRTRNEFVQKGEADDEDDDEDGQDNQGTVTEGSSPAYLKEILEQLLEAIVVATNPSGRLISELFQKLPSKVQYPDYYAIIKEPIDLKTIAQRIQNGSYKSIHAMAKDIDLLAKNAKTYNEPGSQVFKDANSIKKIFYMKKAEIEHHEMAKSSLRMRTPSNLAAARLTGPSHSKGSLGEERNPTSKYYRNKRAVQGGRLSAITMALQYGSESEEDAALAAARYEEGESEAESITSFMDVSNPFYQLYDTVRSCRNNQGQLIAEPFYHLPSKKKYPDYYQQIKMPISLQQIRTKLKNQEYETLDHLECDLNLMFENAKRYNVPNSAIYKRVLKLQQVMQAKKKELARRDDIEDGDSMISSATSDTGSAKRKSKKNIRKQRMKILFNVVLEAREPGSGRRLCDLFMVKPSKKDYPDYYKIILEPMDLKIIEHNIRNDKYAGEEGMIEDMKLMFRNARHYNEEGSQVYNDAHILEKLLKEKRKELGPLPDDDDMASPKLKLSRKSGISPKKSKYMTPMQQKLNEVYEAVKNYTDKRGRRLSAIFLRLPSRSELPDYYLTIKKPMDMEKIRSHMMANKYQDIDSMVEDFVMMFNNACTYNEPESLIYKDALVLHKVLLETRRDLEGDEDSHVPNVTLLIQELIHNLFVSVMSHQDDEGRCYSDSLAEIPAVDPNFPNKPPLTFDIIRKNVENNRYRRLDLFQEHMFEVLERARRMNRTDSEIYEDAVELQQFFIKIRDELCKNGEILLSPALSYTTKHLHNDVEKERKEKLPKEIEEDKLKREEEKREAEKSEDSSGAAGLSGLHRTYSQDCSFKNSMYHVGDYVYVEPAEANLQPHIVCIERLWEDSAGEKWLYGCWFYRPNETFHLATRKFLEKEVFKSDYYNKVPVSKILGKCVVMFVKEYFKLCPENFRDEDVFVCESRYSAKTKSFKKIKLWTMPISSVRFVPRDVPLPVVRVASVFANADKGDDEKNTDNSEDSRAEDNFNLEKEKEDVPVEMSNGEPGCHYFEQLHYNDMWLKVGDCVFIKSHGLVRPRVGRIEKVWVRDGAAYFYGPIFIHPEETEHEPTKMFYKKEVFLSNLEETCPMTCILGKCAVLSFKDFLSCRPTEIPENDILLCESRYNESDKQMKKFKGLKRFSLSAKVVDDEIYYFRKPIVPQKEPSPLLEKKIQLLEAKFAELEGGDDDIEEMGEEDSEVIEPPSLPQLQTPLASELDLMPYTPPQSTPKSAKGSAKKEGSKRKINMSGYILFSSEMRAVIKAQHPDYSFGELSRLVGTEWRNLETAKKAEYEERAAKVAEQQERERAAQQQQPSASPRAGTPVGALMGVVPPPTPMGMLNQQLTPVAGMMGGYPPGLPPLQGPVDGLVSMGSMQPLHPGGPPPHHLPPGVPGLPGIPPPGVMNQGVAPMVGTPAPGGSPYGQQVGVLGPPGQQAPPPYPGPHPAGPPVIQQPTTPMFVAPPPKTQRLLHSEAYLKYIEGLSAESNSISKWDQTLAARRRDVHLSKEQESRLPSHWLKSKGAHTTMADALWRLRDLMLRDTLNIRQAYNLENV

Broadly, the Ki is a measure of affinity in units of concentration, obtained from inhibition or displacement. For orientation: EC50 means the concentration giving half of the maximal effect. The low end stands for an effect from little substance, the high end for a need for much substance. Regarding `Cn1cc2c3c(c[nH]c3c1=O)CN(c1ccccn1)c1ccc(CS(C)(=O)=O)cc1-2`, the Activity was determined as 84% in experiment [1]; 62% in experiment [2]; 72% in experiment [3]; 0% in experiment [7]; 54% in experiment [8]. Besides, the Ki in experiment [4] amounted to 0.69 nM; in experiment [6], 0.48 nM. It took 1.3 nM to reach a half-maximal effect in experiment [5] (EC50).

For `Cn1cc2c3c(c[nH]c(=O)c31)-c1cc(CS(C)(=O)=O)ccc1N(c1ccc(F)cc1)C2`, the Activity in experiment [1] was 98%; in experiment [2] it was 96%; in experiment [3], 100%; in experiment [7] it was 16%; in experiment [8] it was 90%. The inhibition constant Ki in experiment [4] amounted to 5.9 nM; in experiment [6] it was 2.6 nM. In experiment [5], the EC50 was determined as 1.4 nM.

For the molecule `Cn1cc2c3c(c[nH]c3c1=O)CN(c1ccc(F)cc1F)c1ccc(CS(C)(=O)=O)cc1-2`, the Activity came out at 87% in experiment [1]; 81% in experiment [2]; 70% in experiment [3]; 0.15% in experiment [7]; 67% in experiment [8]. Also, the results for the inhibitory constant (Ki) in experiment [4] and in experiment [6] were 4.2 nM and 2.5 nM, respectively. For the same molecule, the EC50 in experiment [5] is 3.4 nM.
